US8188059B2, “Compounds and methods for modulating expression of GCGR” (Isis Pharmaceuticals, Inc., priority 2006, dated 2012)
Strand notation (5' to 3'): a small letter for the sugar, then the base; units joined by * are phosphorothioate-linked, units joined directly phosphodiester-linked; [ ] holds rarer units or linkages, { } end groups; capitals alone tell only the bases. e = 2'-O-(2-methoxyethyl) (MOE); k = constrained ethyl (cEt); [5mC] = 5-methylcytosine; d = 2'-deoxy (DNA)

Tests used:
PTP1B mRNA [1] = experiment: Antisense inhibition of human PTP1B in HuVEC cells at 3 nM (Example 23, Table 84); assay type: cell-based
Procedure: Short antisense compounds targeted to a PTP1B nucleic acid were tested for their effects on PTP1B mRNA in vitro. Cultured HuVEC cells at a density of 5000 cells per well in a 96-well plate were treated as described herein with 3 nM of short antisense compound. After the treatment period, RNA was isolated from the cells and PTP1B mRNA levels were measured by quantitative real-time PCR, as described herein. PTP1B mRNA levels were adjusted according to total RNA content as measured by RIBOGREEN®. Results are presented as percent inhibition of PTP1B (% Inhib), relative to untreated control cells.

PTP1B mRNA [2] = experiment: Antisense inhibition of human PTP1B in HepG2 cells at 25 nM (Example 24, Table 85); assay type: cell-based
Procedure: Short antisense compounds targeted to a PTP1B nucleic acid were tested for their effects on PTP1B mRNA in vitro. Cultured HepG2 cells at a density of 10000 cells per well in a 96-well plate were treated with 25 nM of antisense oligonucleotide. After the treatment period, RNA was isolated from the cells and PTP1B mRNA levels were measured by quantitative real-time PCR, as described herein. PTP1B mRNA levels were adjusted according to total RNA content as measured by RIBOGREEN®. Results are presented as percent inhibition (% Ihib) of PTP1B, relative to untreated control cells.

GCGR mRNA = experiment: Antisense inhibition of GCGR in HepG2 cells, 25-200 nM (Example 21, Table 79); assay type: cell-based, human; conditions: HepG2 cells, 25, 50, 100 or 200 nM
Procedure: Short antisense compounds targeted to a GCGR nucleic acid were tested for their effects on GCGR mRNA in vitro.
Cultured HepG2 cells at a density of 10000 cells per well in a 96-well plate were treated as described herein with 25, 50, 100 or 200 nM of antisense oligonucleotide. After the treatment period, RNA was isolated from the cells and GCGR mRNA levels were measured by quantitative real-time PCR, as described herein. GCGR mRNA levels were adjusted according to total RNA content as measured by RIBOGREEN®. Results are presented as percent reduction in GCGR mRNA, relative to untreated control cells.

mouse SGLT2 mRNA [3] = experiment: Mouse SGLT2 mRNA levels in kidney, additional 1-10-1 and 2-8-2 MOE gapmers, Balb/c mice (Example 15, Table 68); assay type: in vivo
rat SGLT2 mRNA [4] = experiment: Rat SGLT2 mRNA levels in kidney, 1-10-1 and 1-10-2 MOE gapmers, Sprague-Dawley rats (Example 13, Table 63); assay type: in vivo
Source text: 1-10-1 and 1-10-2 MOE gapmer antisense compounds, provided in Table 62, were designed to target different regions of the mouse or rat SGLT2 RNA. All short antisense compounds in Table 62 are chimeric oligonucleotides (“gapmers”) either 12 or 13 nucleotides in length, composed of a central “gap” segment consisting of ten 2′-deoxynucleotides, which are flanked on the 5′ side by a one-nucleoside “wing” and on the 3′ side by a two or one-nucleotide “wing”. […] All cytidine residues are 5-methylcytidines.
The short antisense compounds were analyzed for their effect on rat SGLT2 mRNA levels. Data are ranges taken from three experiments in which Male Sprague-Dawley rats (170-200 g) were dosed twice per week for three weeks with 450, 150 or 50 nmol/kg of either a 1-10-1 or 1-10-2 MOE gapmer given by intraperitoneal injection. Rats were sacrificed 48 hours following last administration and evaluated for SGLT2 mRNA levels in kidney. Target levels were determined by RT, real-time PCR as described by other examples herein. PCR results were normalized to an internal ISIS control.

rat SGLT2 mRNA [5] = experiment: Rat SGLT2 mRNA levels in kidney, 1-10-1 gapmers at 250 nmol/kg, Sprague-Dawley rats (Example 14, Table 66); assay type: in vivo; conditions: 250 nmol/kg i.p. twice per week for three weeks; Sprague-Dawley rats; kidney
Procedure: The effect of the above 1-10-1gapmers (see Table 64 above) on rat SGLT2 mRNA levels. Data are taken from four experiments in which male Sprague-Dawley rats (170-200 g) were dosed twice per week for three weeks with 250 nmol/kg given by intraperitoneal injection. Rats were sacrificed 48 hours following last administration and evaluated for SGLT2 mRNA levels in kidney. Target levels were determined by RT, real-time PCR as described by other examples herein. PCR results were normalized to an internal ISIS control.

mouse SGLT2 mRNA [6] = experiment: Mouse SGLT2 mRNA levels in kidney, MOE versus Methyleneoxy BNA gapmers, Balb/c mice (Example 15, Table 69); assay type: in vivo
Procedure: The effect of ISIS 379692 1-10-1 MOE gapmer and ISIS 388625 2-8-2 MOE gapmer are compared with the effect of ISIS 392170 1-10-1 Methyleneoxy BNA Gapmer and ISIS 392173 2-8-2 Methyleneoxy BNA Gapmer (see Table 69) on mouse SGLT2 mRNA levels in vivo. Data are taken from three experiments in which male 6-week old Balb/c mice were dosed twice per week for three weeks with 5, 25 and 125 nmol/kg of either the ISIS 379692 1-10-1 MOE gapmer or the ISIS 388625 2-8-2 MOE gapmer given by intraperitoneal injection. Mice were sacrificed 48 hours following last administration and evaluated for SGLT2 mRNA levels in kidney. Target levels were determined by RT, real-time PCR as described by other examples herein. PCR results were normalized to an internal ISIS control. The data are expressed as percent change (“+” indicates an increase, “−” indicates a decrease) relative to saline treated animals and are illustrated in Table 69.

mouse SGLT2 mRNA [7] = experiment: Mouse SGLT2 mRNA levels in kidney, 1-10-1 MOE gapmers, Balb/c mice (Example 14, Table 65); assay type: in vivo
Procedure: The short antisense compounds were analyzed for their effect on mouse SGLT2 mRNA levels. Data was taken from three experiments in which Male 6-week old Balb/c mice were dosed twice per week for two weeks with 450, 150, or 50 nmol/kg of one of the above 1-10-1 MOE gapmers given by intraperitoneal injection. Mice were sacrificed 48 hours following last administration and evaluated for SGLT2 mRNA levels in kidney. Target levels were determined by RT, real-time PCR as described by other examples herein. PCR results were normalized to an internal ISIS control.

rat SGLT2 mRNA [8] = experiment: Rat SGLT2 mRNA levels in kidney, ISIS 379692 and ISIS 388625, Sprague-Dawley rats (Example 15, Table 70); assay type: in vivo; conditions: i.p. twice per week for three weeks
Procedure: The effect of ISIS 379692 1-10-1 MOE gapmer and ISIS 388625 MOE 2-8-2 gapmer (see Table 70) on rat SGLT2 mRNA levels in vivo. […] Rats were sacrificed 48 hours following last administration and evaluated for SGLT2 levels in kidney. Target levels were determined by RT, real-time PCR as described by other examples herein. PCR results were normalized to an internal ISIS control.

ApoB mRNA = ApoB mRNA in liver of Balb/c mice, single i.p. dose 8, 4, 2 or 1 μmol/kg, with ED50 (Example 28, Table 92); assay type: in vivo, mouse; conditions: ApoB mRNA in liver, single i.p. administration
Procedure: The short antisense compounds tested were ISIS 387462 and ISIS 398296. Each dose group consisted of four animals. A 5-10-5 MOE gapmer was used for a control treatment. Mice were sacrificed approximately 48 hours following the final dose. Liver tissue was collected for RNA isolation, and blood was collected for serum chemistry analyses. ApoB mRNA levels were measured by real-time PCR as described herein. ApoB mRNA levels were normalized to RNA levels as determined by RIBOGREEN, and are presented in Table 92 as percent inhibition relative to ApoB mRNA levels in saline-treated control animals.
At the 8 umol/kg dose, ApoB inhibition by the short antisense compounds was greater than observed with a 5-10-5 MOE gapmer at an equivalent dose. […] Triglycerides were reduced at the highest dose.

[9] = 0.02 umol/kg i.p. twice per week for three weeks
[10] = 0.1 umol/kg i.p. twice per week for three weeks
[11] = 0.5 umol/kg i.p. twice per week for three weeks
[12] = 50 nmol/kg i.p. twice per week for three weeks
[13] = 150 nmol/kg i.p. twice per week for three weeks
[14] = 450 nmol/kg i.p. twice per week for three weeks
[15] = 50 nmol/kg i.p. twice per week for two weeks
[16] = 150 nmol/kg i.p. twice per week for two weeks
[17] = 450 nmol/kg i.p. twice per week for two weeks

| Substance | % change in SGLT2 expression relative to saline (mouse SGLT2 mRNA [3]; [9]) | % change in SGLT2 expression relative to saline (mouse SGLT2 mRNA [3]; [10]) | % change in SGLT2 expression relative to saline (mouse SGLT2 mRNA [3]; [11]) | % change in SGLT2 expression relative to saline (rat SGLT2 mRNA [4]; [12]) | % change in SGLT2 expression relative to saline (rat SGLT2 mRNA [4]; [13]) | % change in SGLT2 expression relative to saline (rat SGLT2 mRNA [4]; [14]) | % change in SGLT2 expression relative to saline (rat SGLT2 mRNA [5]) | % change in SGLT2 expression relative to saline (mouse SGLT2 mRNA [7]; [15]) | % change in SGLT2 expression relative to saline (mouse SGLT2 mRNA [7]; [16]) | % change in SGLT2 expression relative to saline (mouse SGLT2 mRNA [7]; [17]) | other results |
| --- | --- | --- | --- | --- | --- | --- | --- | --- | --- | --- | --- |
| 404140 (antisense eG*e[5mC]*dA*d[5mC]*dA*d[5mC]*dA*dG*d[5mC]*dT*dG*dA*eG*eG) [compound 404140] |  |  |  |  |  |  |  |  |  |  | % Inhib (PTP1B mRNA) (PTP1B mRNA [1]): 73%; % Inhib (PTP1B mRNA) (PTP1B mRNA [2]): 93% |
| ISIS 327161: GCGR; 3-10-3 MOE gapmer (antisense eA*eG*e[5mC]*dT*dG*d[5mC]*dT*dG*dT*dA*d[5mC]*eA*eT*e[5mC]) |  |  |  |  |  |  |  |  |  |  | GCGR mRNA (GCGR mRNA): reduced GCGR mRNA in a dose-dependent manner |
| ISIS 379692: SGLT2; 1-10-1 MOE gapmer (antisense eT*dG*dT*dT*d[5mC]*d[5mC]*dA*dG*d[5mC]*d[5mC]*d[5mC]*eA) | −55% | −75% | −85% | −80% | −85% | −90% | −85% | −52.5% | −70% | −80% | SGLT2 mRNA, percent change relative to saline treated animals (mouse SGLT2 mRNA [6]; 5 nmol/kg i.p. twice per week for three weeks): −7 percent change; SGLT2 mRNA, percent change relative to saline treated animals (mouse SGLT2 mRNA [6]; 25 nmol/kg i.p. twice per week for three weeks): −46 percent change; SGLT2 mRNA, percent change relative to saline treated animals (mouse SGLT2 mRNA [6]; 125 nmol/kg i.p. twice per week for three weeks): −58 percent change; % change in SGLT2 expression relative to saline (rat SGLT2 mRNA [8]; dose 3.125 umol/kg (head)): +30%; % change in SGLT2 expression relative to saline (rat SGLT2 mRNA [8]; dose 12.5 umol/kg (head)): −15%; % change in SGLT2 expression relative to saline (rat SGLT2 mRNA [8]; dose 50 umol/kg (head)): −65%; % change in SGLT2 expression relative to saline (rat SGLT2 mRNA [8]; dose 200 umol/kg (head)): −80% |
| ISIS 379699: SGLT2; GGCATGAGCTTC 1-10-1 MOE (antisense eG*dG*d[5mC]*dA*dT*dG*dA*dG*d[5mC]*dT*dT*e[5mC]) | −30% | −60% | −75% | −60% | −75% | −83% | −75% | −42.5% | −62.5% | −80% |  |
| ISIS 398296: ApoB; GGTACATGGAAGTC 2-10-2 (6′S)-6′-methyl-Methyleneoxy BNA Unmodified Cytosines (antisense kG*kG*dT*dA*dC*dA*dT*dG*dG*dA*dA*dG*kT*kC) |  |  |  |  |  |  |  |  |  |  | ED50 (ApoB mRNA): 8.7 mg/kg |
